{"source": "paper PMC8763936", "about": "(Investigational New Drugs, 2021)", "key": {"[1]": {"system": "CYPs 1A2, 2B6, 2C8, 2C9, 2C19 and 2D6 (all tested CYPs but CYP3A4/5)", "assay": "In vitro CYP inhibition in human liver microsomes, CYPs not named one by one", "format": "in vitro ADME", "conditions": "human, read-out: IC50 for the other CYPs tested"}, "[2]": {"system": "CYP1A2", "assay": "Induction of CYP enzymes in human hepatocytes", "conditions": "for Relative Effectiveness ± SD Based on CYP Activity / Relative Effectiveness ± SD Based on CYP mRNA: percent of positive control", "procedure": "(§1) In vitro induction of CYP mRNA (CYPs 1A2, 2C8, 2C9 and 3A4) or enzyme activity (CYPs 1A2, 2C19 and 3A4) was assessed in human hepatocytes."}, "[3]": {"system": "CYP3A4", "assay": "Induction of CYP enzymes in human hepatocytes", "conditions": "for Relative Effectiveness ± SD Based on CYP Activity / Relative Effectiveness ± SD Based on CYP mRNA: percent of positive control", "procedure": "as §1"}, "[4]": {"target": "T1, CYP1A2 (Homo sapiens, UniProt P05177)", "T1 sequence (P05177 1-516)": "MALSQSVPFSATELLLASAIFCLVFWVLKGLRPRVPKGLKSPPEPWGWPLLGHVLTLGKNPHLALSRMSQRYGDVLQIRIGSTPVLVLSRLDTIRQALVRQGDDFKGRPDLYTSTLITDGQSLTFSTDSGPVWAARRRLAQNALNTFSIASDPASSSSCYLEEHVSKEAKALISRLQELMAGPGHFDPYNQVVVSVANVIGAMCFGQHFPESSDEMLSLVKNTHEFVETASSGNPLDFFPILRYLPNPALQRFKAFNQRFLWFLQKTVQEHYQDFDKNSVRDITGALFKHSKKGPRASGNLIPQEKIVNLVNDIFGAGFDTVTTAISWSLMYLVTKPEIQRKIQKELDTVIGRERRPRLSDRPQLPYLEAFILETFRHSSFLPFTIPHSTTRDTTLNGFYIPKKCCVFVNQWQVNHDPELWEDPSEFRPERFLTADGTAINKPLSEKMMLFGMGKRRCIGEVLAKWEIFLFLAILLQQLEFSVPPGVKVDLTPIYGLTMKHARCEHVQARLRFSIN", "assay": "In vitro CYP inhibition in human liver microsomes", "format": "in vitro ADME", "design": "purchased Corning-Gentest"}, "[5]": {"target": "T2, CYP2C9 (Homo sapiens, UniProt P11712)", "T2 sequence (P11712 whole entry)": "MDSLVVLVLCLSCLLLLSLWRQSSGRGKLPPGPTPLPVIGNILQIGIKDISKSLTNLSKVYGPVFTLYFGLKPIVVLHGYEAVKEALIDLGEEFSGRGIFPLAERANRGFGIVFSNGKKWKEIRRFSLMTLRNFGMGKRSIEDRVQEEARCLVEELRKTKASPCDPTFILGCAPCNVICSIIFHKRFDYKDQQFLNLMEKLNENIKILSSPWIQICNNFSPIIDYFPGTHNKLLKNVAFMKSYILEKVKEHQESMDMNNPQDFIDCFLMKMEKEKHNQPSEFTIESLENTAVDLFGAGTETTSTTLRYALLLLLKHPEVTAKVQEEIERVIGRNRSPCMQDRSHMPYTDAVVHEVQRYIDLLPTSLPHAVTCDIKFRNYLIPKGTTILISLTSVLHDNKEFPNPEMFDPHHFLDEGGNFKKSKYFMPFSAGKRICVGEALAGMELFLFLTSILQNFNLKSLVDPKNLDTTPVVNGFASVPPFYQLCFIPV", "assay": "In vitro CYP inhibition in human liver microsomes", "format": "in vitro ADME", "design": "purchased Corning-Gentest"}, "[6]": {"target": "CYP2C19 (Homo sapiens, UniProt P33261)", "sequence (P33261 whole entry)": "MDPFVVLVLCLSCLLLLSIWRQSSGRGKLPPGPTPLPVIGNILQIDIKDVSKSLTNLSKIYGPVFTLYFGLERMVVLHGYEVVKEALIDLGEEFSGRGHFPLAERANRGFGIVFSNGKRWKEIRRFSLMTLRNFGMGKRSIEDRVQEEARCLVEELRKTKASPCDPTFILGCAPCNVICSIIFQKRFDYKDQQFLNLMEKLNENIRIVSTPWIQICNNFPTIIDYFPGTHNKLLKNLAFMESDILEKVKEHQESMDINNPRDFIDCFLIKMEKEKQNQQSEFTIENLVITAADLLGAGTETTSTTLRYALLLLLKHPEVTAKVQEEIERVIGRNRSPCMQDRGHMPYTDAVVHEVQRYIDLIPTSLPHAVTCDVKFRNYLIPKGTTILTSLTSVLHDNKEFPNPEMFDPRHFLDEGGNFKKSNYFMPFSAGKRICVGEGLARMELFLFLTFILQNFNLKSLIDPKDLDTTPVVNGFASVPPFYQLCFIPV", "assay": "In vitro CYP inhibition in human liver microsomes", "format": "in vitro ADME", "design": "purchased Corning-Gentest"}, "[7]": {"target": "T1, CYP1A2", "assay": "Metabolism by recombinantly expressed CYP enzymes"}, "[8]": {"target": "T3, CYP2C8 (Homo sapiens, UniProt P10632)", "T3 sequence (P10632 1-490)": "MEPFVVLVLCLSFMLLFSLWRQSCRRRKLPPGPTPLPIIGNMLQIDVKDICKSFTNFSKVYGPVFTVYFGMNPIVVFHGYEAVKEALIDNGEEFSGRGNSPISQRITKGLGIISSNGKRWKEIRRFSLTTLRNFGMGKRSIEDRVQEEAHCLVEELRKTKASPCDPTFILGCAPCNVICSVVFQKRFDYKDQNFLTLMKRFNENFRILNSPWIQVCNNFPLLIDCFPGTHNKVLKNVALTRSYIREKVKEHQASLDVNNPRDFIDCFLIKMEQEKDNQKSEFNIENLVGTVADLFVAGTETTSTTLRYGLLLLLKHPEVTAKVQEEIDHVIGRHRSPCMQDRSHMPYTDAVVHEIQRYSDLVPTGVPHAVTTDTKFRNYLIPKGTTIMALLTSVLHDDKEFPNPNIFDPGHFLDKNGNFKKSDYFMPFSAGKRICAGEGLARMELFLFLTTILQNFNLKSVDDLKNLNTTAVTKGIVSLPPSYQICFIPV", "assay": "Metabolism by recombinantly expressed CYP enzymes"}, "[9]": {"target": "T2, CYP2C9", "assay": "Metabolism by recombinantly expressed CYP enzymes"}, "[10]": {"target": "CYP3A5 (Homo sapiens, UniProt P20815)", "sequence (P20815 whole entry)": "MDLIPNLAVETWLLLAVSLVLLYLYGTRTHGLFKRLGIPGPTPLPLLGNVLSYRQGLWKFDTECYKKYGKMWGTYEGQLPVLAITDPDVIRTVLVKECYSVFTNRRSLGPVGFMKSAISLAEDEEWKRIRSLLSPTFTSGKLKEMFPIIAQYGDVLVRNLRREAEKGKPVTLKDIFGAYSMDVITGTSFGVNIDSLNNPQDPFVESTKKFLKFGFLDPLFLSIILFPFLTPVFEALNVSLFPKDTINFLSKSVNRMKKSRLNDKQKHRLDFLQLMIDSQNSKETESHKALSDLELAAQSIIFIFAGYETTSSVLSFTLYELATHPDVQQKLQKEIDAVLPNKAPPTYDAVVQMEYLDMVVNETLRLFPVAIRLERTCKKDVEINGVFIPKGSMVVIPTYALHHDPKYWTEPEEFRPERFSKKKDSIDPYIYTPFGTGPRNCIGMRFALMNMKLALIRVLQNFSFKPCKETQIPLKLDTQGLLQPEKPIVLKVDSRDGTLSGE", "assay": "Metabolism by recombinantly expressed CYP enzymes", "design": "Entrectinib Metabolism to M5 / M5 Metabolism: key to the marks not given beside the values"}, "[11]": {"system": "human CYPs 1A2, 2B6, 2C8, 2C9, 2C19, 2D6 and 3A", "assay": "In vitro CYP inhibition in human liver microsomes, CYPs not named one by one", "format": "in vitro ADME", "conditions": "entrectinib: all but CYP3A4/5, M5: all but CYP2C8, read-out: IC50 for the other CYPs tested"}, "[12]": {"assay": "Intrinsic clearance in long-term micropatterned co-cultured human hepatocytes", "format": "in vitro ADME"}, "[13]": {"system": "CYP2C19", "assay": "Induction of CYP enzymes in human hepatocytes", "conditions": "percent of positive control", "procedure": "as §1"}, "[14]": {"system": "CYP2B6", "assay": "Induction of CYP enzymes in human hepatocytes", "format": "in vitro ADME", "conditions": "percent of positive control"}, "[15]": {"system": "CYPs 1A2, 2B6, 2C19, and 3A4", "assay": "Induction of CYP enzymes in human hepatocytes, CYPs tested taken together", "format": "in vitro ADME"}, "[16]": {"assay": "Estimated free plasma Cmax in patients treated at 600 mg QD", "format": "in vivo, human", "conditions": "unbound fraction of 1% used"}, "[17]": {"conditions": "humans, mass balance study; cited from earlier work"}, "[18]": {"design": "method as in Roche data on file", "conditions": "human plasma; ref Roche data on file; cited from earlier work"}, "[19]": {"target": "P-gp (Homo sapiens, UniProt P08183)", "sequence (P08183 whole entry)": "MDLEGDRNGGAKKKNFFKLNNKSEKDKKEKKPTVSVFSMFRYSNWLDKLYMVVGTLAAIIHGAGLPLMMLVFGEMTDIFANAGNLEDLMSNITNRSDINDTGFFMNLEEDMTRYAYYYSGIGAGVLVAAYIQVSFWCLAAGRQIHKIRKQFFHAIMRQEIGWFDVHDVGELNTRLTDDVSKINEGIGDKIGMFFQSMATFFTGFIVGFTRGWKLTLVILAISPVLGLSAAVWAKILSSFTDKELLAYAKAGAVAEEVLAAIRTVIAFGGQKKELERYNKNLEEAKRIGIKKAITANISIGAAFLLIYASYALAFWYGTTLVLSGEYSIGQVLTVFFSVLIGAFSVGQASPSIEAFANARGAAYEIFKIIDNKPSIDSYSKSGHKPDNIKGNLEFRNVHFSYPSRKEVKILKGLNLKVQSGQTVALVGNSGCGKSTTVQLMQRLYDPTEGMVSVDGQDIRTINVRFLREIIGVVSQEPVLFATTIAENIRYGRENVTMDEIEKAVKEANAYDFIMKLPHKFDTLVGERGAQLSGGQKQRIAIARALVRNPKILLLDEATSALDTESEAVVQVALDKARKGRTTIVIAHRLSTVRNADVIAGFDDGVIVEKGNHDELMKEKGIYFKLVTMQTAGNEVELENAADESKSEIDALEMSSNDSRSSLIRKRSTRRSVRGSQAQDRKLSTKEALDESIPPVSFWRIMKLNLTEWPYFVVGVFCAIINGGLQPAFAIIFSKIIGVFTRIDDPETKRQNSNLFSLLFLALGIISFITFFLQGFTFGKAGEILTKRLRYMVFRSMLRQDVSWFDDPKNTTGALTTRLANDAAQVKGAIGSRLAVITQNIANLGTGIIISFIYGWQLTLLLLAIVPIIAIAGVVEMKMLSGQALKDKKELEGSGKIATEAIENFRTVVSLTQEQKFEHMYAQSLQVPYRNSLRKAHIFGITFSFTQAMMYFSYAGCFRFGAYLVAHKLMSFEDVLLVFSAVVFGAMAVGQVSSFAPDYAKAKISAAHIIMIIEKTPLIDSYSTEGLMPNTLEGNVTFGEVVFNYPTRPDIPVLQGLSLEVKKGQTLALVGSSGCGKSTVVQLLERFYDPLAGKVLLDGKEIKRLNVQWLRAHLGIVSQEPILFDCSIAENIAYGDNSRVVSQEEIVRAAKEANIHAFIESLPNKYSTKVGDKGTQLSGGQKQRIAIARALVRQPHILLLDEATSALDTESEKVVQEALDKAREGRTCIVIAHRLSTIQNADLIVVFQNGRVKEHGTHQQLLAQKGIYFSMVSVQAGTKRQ", "assay": "In vitro P-gp substrate assay (Caco-2 and MDCKII-MDR1 cells)", "format": "in vitro ADME", "design": "expressed in transfected cells; host or cells: MDCKII-MDR1 cells; also Caco-2 cells"}}, "note": "pIC50: −log10 of the molar value. Marks after values point to notes of the source that are not given here.", "data": [{"smiles": "CN1CCN(c2ccc(C(=O)Nc3n[nH]c4ccc(Cc5cc(F)cc(F)c5)cc34)c(NC3CCOCC3)c2)CC1", "note": "[Entrectinib]", "values": [{"measurement": "pIC50", "setting": "[1]", "result": "< 5.00"}, {"measurement": "induction of CYP1A2 mRNA or enzyme activity", "setting": "[2]; human hepatocytes", "result": "did not significantly induce"}, {"measurement": "CYP3A4 induction in vitro, in words", "setting": "[3]; in vitro", "result": "weak CYP3A4 inducer"}, {"measurement": "pIC50", "setting": "[4]", "result": "< 5.00"}, {"measurement": "pIC50", "setting": "[5]", "result": "< 5.00"}, {"measurement": "pIC50", "setting": "[6]", "result": "< 5.00"}, {"measurement": "Entrectinib Metabolism to M5", "setting": "[7]", "result": "-"}, {"measurement": "Entrectinib Metabolism to other Products", "setting": "[7]", "result": "-"}, {"measurement": "Entrectinib Metabolism to M5", "setting": "[8]", "result": "+"}, {"measurement": "Entrectinib Metabolism to other Products", "setting": "[8]", "result": "+"}, {"measurement": "Entrectinib Metabolism to M5", "setting": "[9]", "result": "-"}, {"measurement": "Entrectinib Metabolism to other Products", "setting": "[9]", "result": "-"}, {"measurement": "Entrectinib Metabolism to M5", "setting": "[10]", "result": "++"}, {"measurement": "Entrectinib Metabolism to other Products", "setting": "[10]", "result": "+"}]}, {"smiles": "O=C(Nc1n[nH]c2ccc(Cc3cc(F)cc(F)c3)cc12)c1ccc(N2CCNCC2)cc1NC1CCOCC1", "note": "[M5]", "values": [{"measurement": "pIC50", "setting": "[11]", "result": "< 5.00"}, {"measurement": "intrinsic clearance relative to entrectinib", "setting": "[12]", "result": "approximately twofold lower intrinsic clearance than entrectinib"}, {"measurement": "Relative Effectiveness ± SD Based on CYP Activity", "setting": "[2]; M5 0.5 µM", "result": "0.575% ±0.657"}, {"measurement": "Relative Effectiveness ± SD Based on CYP mRNA", "setting": "[2]; M5 0.5 µM", "result": "0.22% ±0.23"}, {"measurement": "Relative Effectiveness ± SD Based on CYP Activity", "setting": "[2]; M5 2.5 µM", "result": "1.30% ±1.4"}, {"measurement": "Relative Effectiveness ± SD Based on CYP mRNA", "setting": "[2]; M5 2.5 µM", "result": "1.22% ±0.87"}, {"measurement": "Relative Effectiveness ± SD Based on CYP Activity", "setting": "[2]; M5 10 µM", "result": "0.445% ±0.27"}, {"measurement": "Relative Effectiveness ± SD Based on CYP mRNA", "setting": "[2]; M5 10 µM", "result": "1.70% ±0.15"}, {"measurement": "Relative Effectiveness ± SD Based on CYP Activity", "setting": "[13]; M5 0.5 µM", "result": "-1.21% ±0.94"}, {"measurement": "Relative Effectiveness ± SD Based on CYP Activity", "setting": "[13]; M5 2.5 µM", "result": "-3.22% ±3.41"}, {"measurement": "Relative Effectiveness ± SD Based on CYP Activity", "setting": "[13]; M5 10 µM, n=2", "result": -9.87, "unit": "% ^a"}, {"measurement": "Relative Effectiveness ± SD Based on CYP Activity", "setting": "[3]; M5 0.5 µM", "result": "1.25% ±1.17"}, {"measurement": "Relative Effectiveness ± SD Based on CYP mRNA", "setting": "[3]; M5 0.5 µM", "result": "1.16% ±1.47"}, {"measurement": "Relative Effectiveness ± SD Based on CYP Activity", "setting": "[3]; M5 2.5 µM", "result": "4.61% ±3.06"}, {"measurement": "Relative Effectiveness ± SD Based on CYP mRNA", "setting": "[3]; M5 2.5 µM", "result": "5.9% ±5.01"}, {"measurement": "Relative Effectiveness ± SD Based on CYP Activity", "setting": "[3]; M5 10 µM", "result": "5.42% ±4.45"}, {"measurement": "Relative Effectiveness ± SD Based on CYP mRNA", "setting": "[3]; M5 10 µM", "result": "16.5% ±11.2"}, {"measurement": "impact on the mRNA expression or activity of CYP3A4", "setting": "[3]; human hepatocytes", "result": "no significant impact"}, {"measurement": "Relative Effectiveness ± SD Based on CYP Activity", "setting": "[14]; M5 0.5 µM", "result": "2.98% ±2.91"}, {"measurement": "Relative Effectiveness ± SD Based on CYP mRNA", "setting": "[14]; M5 0.5 µM", "result": "4.22% ±4.37"}, {"measurement": "Relative Effectiveness ± SD Based on CYP Activity", "setting": "[14]; M5 2.5 µM", "result": "9.02% ±8.75"}, {"measurement": "Relative Effectiveness ± SD Based on CYP mRNA", "setting": "[14]; M5 2.5 µM", "result": "19.3% ±11.4"}, {"measurement": "Relative Effectiveness ± SD Based on CYP Activity", "setting": "[14]; M5 10 µM", "result": "9.56% ±8.52"}, {"measurement": "Relative Effectiveness ± SD Based on CYP mRNA", "setting": "[14]; M5 10 µM", "result": "26.5% ±10.7"}, {"measurement": "impact on the activities of the CYPs tested", "setting": "[15]", "result": "no significant impact"}, {"measurement": "estimated free Cmax in plasma", "setting": "[16]", "result": 13.4, "unit": "nM"}, {"measurement": "share of total circulating radioactivity", "setting": "[17]", "result": 12, "unit": "%"}, {"measurement": "unbound fraction", "setting": "[18]", "result": "< 1", "unit": "%"}, {"measurement": "pIC50", "setting": "[4]", "result": "< 5.00"}, {"measurement": "pIC50", "setting": "[5]", "result": "< 5.00"}, {"measurement": "pIC50", "setting": "[6]", "result": "< 5.00"}, {"measurement": "M5 Metabolism", "setting": "[7]", "result": "-"}, {"measurement": "M5 Metabolism", "setting": "[8]", "result": "-"}, {"measurement": "M5 Metabolism", "setting": "[9]", "result": "-"}, {"measurement": "M5 Metabolism", "setting": "[10]", "result": "++"}, {"measurement": "P-gp substrate status", "setting": "[19]", "result": "substrate"}]}]}
